Reference: US8192962B2, “Processes for detecting toxic substances” (Daikin Industries, Ltd., priority 2001, dated 2012)

System: Genes belonging to other category
Assay: DNA chip mRNA expression in yeast, genes belonging to other category (Table 9)
Format: cell-based, Saccharomyces cerevisiae S288C
In short: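 Value is the scanned fluorescence intensity ratio of exposed versus chemical-free cells. Log-phase S288C yeast in YPD at 25° C. received one toxic substance for two hours, dosed to slow growth without killing; Cy3/Cy5-labeled cDNA from oligo-dT-purified mRNA was hybridized to a whole-genome chip at 65° C.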

CCCCCCCCCCCCOS(=O)(=O)[O-].[Na+] [(18), sodium lauryl sulfate]
The level of expressed mRNA in the presence of chemical substance/The level of expressed mRNA in the absence of chemical substance (yeast gene YJL035C): 1.0
The level of expressed mRNA in the presence of chemical substance/The level of expressed mRNA in the absence of chemical substance (yeast gene YJL073W): 1.0
The level of expressed mRNA in the presence of chemical substance/The level of expressed mRNA in the absence of chemical substance (yeast gene YJL089W): 1.1
The level of expressed mRNA in the presence of chemical substance/The level of expressed mRNA in the absence of chemical substance (yeast gene YJL103C): 1.2
The level of expressed mRNA in the presence of chemical substance/The level of expressed mRNA in the absence of chemical substance (yeast gene YJL116C): 0.7
The level of expressed mRNA in the presence of chemical substance/The level of expressed mRNA in the absence of chemical substance (yeast gene YJL164C): 1.7
The level of expressed mRNA in the presence of chemical substance/The level of expressed mRNA in the absence of chemical substance (yeast gene YJL210W): 1.0
The level of expressed mRNA in the presence of chemical substance/The level of expressed mRNA in the absence of chemical substance (yeast gene YJR004C): 0.4
The level of expressed mRNA in the presence of chemical substance/The level of expressed mRNA in the absence of chemical substance (yeast gene YJR019C): 1.4
The level of expressed mRNA in the presence of chemical substance/The level of expressed mRNA in the absence of chemical substance (yeast gene YJR036C): 1.2
The level of expressed mRNA in the presence of chemical substance/The level of expressed mRNA in the absence of chemical substance (yeast gene YJR047C): 0.9
The level of expressed mRNA in the presence of chemical substance/The level of expressed mRNA in the absence of chemical substance (yeast gene YJR050W): 1.1
The level of expressed mRNA in the presence of chemical substance/The level of expressed mRNA in the absence of chemical substance (yeast gene YJR058C): 1.2
The level of expressed mRNA in the presence of chemical substance/The level of expressed mRNA in the absence of chemical substance (yeast gene YJR086W): 1.6
The level of expressed mRNA in the presence of chemical substance/The level of expressed mRNA in the absence of chemical substance (yeast gene YJR117W): 0.9
The level of expressed mRNA in the presence of chemical substance/The level of expressed mRNA in the absence of chemical substance (yeast gene YJR119C): 0.9
The level of expressed mRNA in the presence of chemical substance/The level of expressed mRNA in the absence of chemical substance (yeast gene YJR123W): 0.9
The level of expressed mRNA in the presence of chemical substance/The level of expressed mRNA in the absence of chemical substance (yeast gene YJR145C): 0.9
The level of expressed mRNA in the presence of chemical substance/The level of expressed mRNA in the absence of chemical substance (yeast gene YKL007W): 1.3
The level of expressed mRNA in the presence of chemical substance/The level of expressed mRNA in the absence of chemical substance (yeast gene YKL008C): 1.9
The level of expressed mRNA in the presence of chemical substance/The level of expressed mRNA in the absence of chemical substance (yeast gene YKL013C): 1.7
The level of expressed mRNA in the presence of chemical substance/The level of expressed mRNA in the absence of chemical substance (yeast gene YKL039W): 1.3
The level of expressed mRNA in the presence of chemical substance/The level of expressed mRNA in the absence of chemical substance (yeast gene YKL041W): 1.3
The level of expressed mRNA in the presence of chemical substance/The level of expressed mRNA in the absence of chemical substance (yeast gene YKL056C): 1.2
The level of expressed mRNA in the presence of chemical substance/The level of expressed mRNA in the absence of chemical substance (yeast gene YKL079W): 1.2
The level of expressed mRNA in the presence of chemical substance/The level of expressed mRNA in the absence of chemical substance (yeast gene YKL096W): 0.7
The level of expressed mRNA in the presence of chemical substance/The level of expressed mRNA in the absence of chemical substance (yeast gene YKL117W): 1.8
The level of expressed mRNA in the presence of chemical substance/The level of expressed mRNA in the absence of chemical substance (yeast gene YKL165C): 1.0
The level of expressed mRNA in the presence of chemical substance/The level of expressed mRNA in the absence of chemical substance (yeast gene YKL171W): 1.2
The level of expressed mRNA in the presence of chemical substance/The level of expressed mRNA in the absence of chemical substance (yeast gene YKL193C): 2.3
The level of expressed mRNA in the presence of chemical substance/The level of expressed mRNA in the absence of chemical substance (yeast gene YLR093C): 3.2
The level of expressed mRNA in the presence of chemical substance/The level of expressed mRNA in the absence of chemical substance (yeast gene YLR120C): 2.9
The level of expressed mRNA in the presence of chemical substance/The level of expressed mRNA in the absence of chemical substance (yeast gene YLR136C): 1.4
The level of expressed mRNA in the presence of chemical substance/The level of expressed mRNA in the absence of chemical substance (yeast gene YLR178C): 3.6
The level of expressed mRNA in the presence of chemical substance/The level of expressed mRNA in the absence of chemical substance (yeast gene YLR206W): 1.2
The level of expressed mRNA in the presence of chemical substance/The level of expressed mRNA in the absence of chemical substance (yeast gene YLR250W): 2.2
The level of expressed mRNA in the presence of chemical substance/The level of expressed mRNA in the absence of chemical substance (yeast gene YLR327C): 5.3
The level of expressed mRNA in the presence of chemical substance/The level of expressed mRNA in the absence of chemical substance (yeast gene YLR356W): 1.0
The level of expressed mRNA in the presence of chemical substance/The level of expressed mRNA in the absence of chemical substance (yeast gene YLR362W): 1.3
The level of expressed mRNA in the presence of chemical substance/The level of expressed mRNA in the absence of chemical substance (yeast gene YLR391W): 0.9
The level of expressed mRNA in the presence of chemical substance/The level of expressed mRNA in the absence of chemical substance (yeast gene YLR429W): 0.9
The level of expressed mRNA in the presence of chemical substance/The level of expressed mRNA in the absence of chemical substance (yeast gene YML130C): 1.2
The level of expressed mRNA in the presence of chemical substance/The level of expressed mRNA in the absence of chemical substance (yeast gene YMR004W): 1.3
The level of expressed mRNA in the presence of chemical substance/The level of expressed mRNA in the absence of chemical substance (yeast gene YMR091C): 1.2
The level of expressed mRNA in the presence of chemical substance/The level of expressed mRNA in the absence of chemical substance (yeast gene YMR094W): 1.0
The level of expressed mRNA in the presence of chemical substance/The level of expressed mRNA in the absence of chemical substance (yeast gene YMR104C): 1.9
The level of expressed mRNA in the presence of chemical substance/The level of expressed mRNA in the absence of chemical substance (yeast gene YMR110C): 2.5
The level of expressed mRNA in the presence of chemical substance/The level of expressed mRNA in the absence of chemical substance (yeast gene YMR112C): 1.6
